Data set [1] has as its target T1, MrgprA3 (Mus musculus, UniProt Q91WW3).
T1 sequence (Q91WW3 1-302): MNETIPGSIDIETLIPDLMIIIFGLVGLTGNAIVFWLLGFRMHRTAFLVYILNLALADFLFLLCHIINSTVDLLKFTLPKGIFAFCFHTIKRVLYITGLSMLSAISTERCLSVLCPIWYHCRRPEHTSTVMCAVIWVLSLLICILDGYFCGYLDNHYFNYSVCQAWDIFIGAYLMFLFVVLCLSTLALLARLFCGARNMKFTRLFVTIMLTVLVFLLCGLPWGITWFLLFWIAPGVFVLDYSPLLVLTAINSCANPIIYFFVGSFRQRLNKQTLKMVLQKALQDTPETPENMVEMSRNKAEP
The data set is described as follows: Rescue: Mrgpr-clusterΔ-/- DRG neurons electroporated with Mrgpr construct. Type of data set: cell-based.
Procedure: (§5) To determine whether MrgprA3 or MrgprX1 can rescue the phenotypes of DRG neurons from Mrgpr-clusterΔ^−/− mice, the Mrgpr expression constructs used in the heterologous studies were electroporated into dissociated adult DRG neurons from these mice. After 24 hour in culture, expression and membrane localization of the transfected Mrgprs in the mutant neurons could be readily visualized by GFP (FIG. 8G).

Data set [2] addresses T2, MrgprX1 (Homo sapiens, UniProt Q96LB2). Described as above. Type of data set: cell-based, mouse.
Procedure: as §5
A further data set addresses T3, MrgprX3 (Homo sapiens, UniProt Q96LB0).
T3 construct: expressed in transfected cells; host or cells: HEK293
The data set is described as follows: Calcium imaging of transfected HEK293 cells. The format is cell-based. The text has this: (§1) The human Mrgpr family (i.e. MrgprXs) is much smaller than the murine family.

Another data set has as its target T4, MrgprX2 (Homo sapiens, UniProt Q96LB1).
T4 construct: expressed in transfected cells; host or cells: HEK293
T4 sequence (Q96LB1 1-330): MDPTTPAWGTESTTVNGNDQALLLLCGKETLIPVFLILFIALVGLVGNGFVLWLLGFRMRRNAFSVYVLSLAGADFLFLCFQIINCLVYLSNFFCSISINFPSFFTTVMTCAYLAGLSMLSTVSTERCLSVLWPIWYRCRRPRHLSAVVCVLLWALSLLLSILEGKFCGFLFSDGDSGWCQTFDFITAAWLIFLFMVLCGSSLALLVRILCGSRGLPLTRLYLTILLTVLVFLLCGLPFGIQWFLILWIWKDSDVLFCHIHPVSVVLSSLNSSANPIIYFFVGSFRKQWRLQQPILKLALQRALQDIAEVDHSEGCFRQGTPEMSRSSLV
In words: Calcium imaging of transfected HEK293 cells. The format is cell-based.
Excerpt: as §1

For another data set, the target named is T5, MrgprA1 (Mus musculus, UniProt Q91WW5).
T5 sequence (Q91WW5 1-304): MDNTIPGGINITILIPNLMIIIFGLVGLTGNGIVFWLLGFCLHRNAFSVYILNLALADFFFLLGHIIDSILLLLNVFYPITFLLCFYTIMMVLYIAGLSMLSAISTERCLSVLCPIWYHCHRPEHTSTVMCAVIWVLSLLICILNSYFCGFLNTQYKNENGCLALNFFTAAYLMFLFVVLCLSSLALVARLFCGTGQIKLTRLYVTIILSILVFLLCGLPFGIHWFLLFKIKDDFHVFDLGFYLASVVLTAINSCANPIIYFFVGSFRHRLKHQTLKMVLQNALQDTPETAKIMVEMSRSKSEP
The data set is described as follows: Calcium imaging of HEK293 cells transfected with Mrgpr-GFP constructs. The format is cell-based. As to conditions: CQ 1 mM, FMRF 2 μM. Also on record: expressed in transfected cells. The source says:
(§2) Each of the twelve Mrgprs that were deleted in Mrgpr-clusterΔ^−/− mice were cloned into a mammalian expression vector (FIG. 1A), and transfected individually into human embryonic kidney (HEK) 293 cells. By fusing green fluorescent protein (GFP) to the C-termini of the Mrgpr coding sequences, both transfected cells and the proper membrane localization of the receptors was visualized. […] Increased [Ca^2+]i resulting from activation of the receptors was monitored by calcium imaging.
HEK293 cells were transfected with Mrgpr-expression constructs using Lipofectamine 2000 (Invitrogen) according to the manufacturer's protocol.

Another data set concerns rats. The data set is described as follows: Scratching behavior after intradermal injection in rats. To be noted: 500 μg/50 μl, first 30 min.
In data set [3] the target is T2, MrgprX1. In words: Calcium imaging of HEK293 cells transfected with Mrgpr-GFP constructs. Type of data set: cell-based. Here is the method:
as §1
(§3) Serotonin also has a bicyclic structure. […] Quinine is another drug used to treat malaria and its side effects also include itch. However, it is unclear if quinine-induced itch is an allergic response.
(§4) HEK293 cells were cultured in growth medium consisted of 90% DMEM, 10% fetal bovine serum, 100 U/ml penicillin, and 100 μg/ml Streptomycin (Invitrogen) at 37° C. in the presence of […] and 5% CO2. HEK293 cells were transfected with Mrgpr-expression constructs using Lipofectamine 2000 (Invitrogen) according to the manufacturer's protocol.

The target of data set [4] is T1, MrgprA3. The description is as above. The format is cell-based. Also on record: expressed in transfected cells; host or cells: HEK293.
Excerpt: as §2, §3, §4

In a further data set the target is T6, rat MrgprC (Rattus norvegicus, UniProt Q8R4G1).
T6 sequence (Q8R4G1 1-323): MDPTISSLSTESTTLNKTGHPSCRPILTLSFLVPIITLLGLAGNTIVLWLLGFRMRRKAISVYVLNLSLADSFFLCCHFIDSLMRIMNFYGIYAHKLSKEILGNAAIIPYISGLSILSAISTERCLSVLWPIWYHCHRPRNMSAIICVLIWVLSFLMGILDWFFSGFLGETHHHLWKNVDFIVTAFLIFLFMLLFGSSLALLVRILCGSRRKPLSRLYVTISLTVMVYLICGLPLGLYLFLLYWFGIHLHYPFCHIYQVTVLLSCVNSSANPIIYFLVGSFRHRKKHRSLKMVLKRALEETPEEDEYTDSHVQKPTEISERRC
In words: Rescue: Mrgpr-clusterΔ-/- DRG neurons electroporated with rat Mrgpr, calcium imaging.

The conditions of data set [5]: cited from earlier work.
The test system of the next data set is DRG neurons. In words: Whole-cell current-clamp recording of action potentials in DRG neurons. The format is cell-based, mouse. To be noted: CQ 1 mM. The source says:
To determine whether CQ can directly induce action potentials (APs) in dissociated DRG neurons, using whole-cell patch clamp recording. […] These studies provide strong evidence that CQ can directly excite a small subpopulation of sensory neurons in DRG and that Mrgprs are required for this effect. Similar to the mouse results, CQ induces robust activation in a subset of rat DRG neurons as determined by both an increase in [Ca^2+]i and generation of APs (FIG. 4).
Patch pipettes had resistances of 2-4 MΩ. […] All experiments were performed at room temperature ([…]).

The subject of another data set is mice. The data set is described as follows: Scratching behavior after pruritogen injection in mice. Type of data set: in vivo, mouse. To be noted: for total number of scratching bouts: first 30 min after CQ injection (200 μg/50 μl, 8 mM). The source says: Kuraishi et al., (1995). […] F. (2007) Nature 448, 700-703).

The text below walks through data of patent US9771592B2, “Methods and compositions for treating or preventing pruritis” (The Johns Hopkins University, priority 2008, dated 2017).

T2 sequence (Q96LB2 whole entry): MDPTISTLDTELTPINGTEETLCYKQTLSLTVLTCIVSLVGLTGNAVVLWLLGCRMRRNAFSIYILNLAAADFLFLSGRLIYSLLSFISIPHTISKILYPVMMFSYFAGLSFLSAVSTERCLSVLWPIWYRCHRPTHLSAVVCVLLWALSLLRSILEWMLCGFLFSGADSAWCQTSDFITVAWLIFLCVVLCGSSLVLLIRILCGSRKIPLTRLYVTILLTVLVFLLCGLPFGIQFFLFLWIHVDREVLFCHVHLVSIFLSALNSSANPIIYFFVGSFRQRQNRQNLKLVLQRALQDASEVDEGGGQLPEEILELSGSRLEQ
T3 sequence (Q96LB0 whole entry): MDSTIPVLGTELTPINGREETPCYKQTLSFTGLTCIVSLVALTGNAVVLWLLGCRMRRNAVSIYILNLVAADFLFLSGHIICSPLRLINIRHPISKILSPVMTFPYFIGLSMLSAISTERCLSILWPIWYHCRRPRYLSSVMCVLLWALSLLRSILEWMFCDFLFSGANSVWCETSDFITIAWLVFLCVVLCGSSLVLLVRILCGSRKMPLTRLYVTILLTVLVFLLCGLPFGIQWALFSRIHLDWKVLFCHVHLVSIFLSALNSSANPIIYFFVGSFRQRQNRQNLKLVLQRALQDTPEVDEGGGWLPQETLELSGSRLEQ

One may read the EC50 as the concentration needed to bring the measured effect to its halfway point. For `CCN(CC)CCCC(C)Nc1ccnc2cc(Cl)ccc12` (centres unmarked) [CQ, Chloroquine], on MrgprA3 [1], the “[Ca2+]i response of MrgprA3-expressing mutant neurons” value is “showed increased [Ca^2+]i” and the “action potentials in MrgprA3-expressing mutant neurons” value is on record as “generated numerous APs”. Also, on MrgprX1 [2], the “MrgprX1-electroporated GFP-positive neurons generating a train of APs” value was 5 out of 7 and the “[Ca2+]i response of MrgprX1-electroporated mutant neurons” value was “sensitivity”. Further, the “response of MrgprX3-expressing cells” value at MrgprX3 was “completely insensitive”. For the same compound, at MrgprX2, the “response of MrgprX2-expressing cells” value is recorded as “completely insensitive”. For the same compound, the “response of MrgprA1-transfected cells (increased [Ca2+]i)” value on MrgprA1 was “fewer than half of MrgprA1-tranfected cells responded”. For the same compound, the scratching responses result in the data set with rats is “evoked profound scratching responses”. In addition, the “activation of MrgprX1 (increased [Ca2+]i)” value at MrgprX1 [3] (BAM8-22 2 μM) is reported as “responded”. For the same compound, the EC50 on MrgprX1 [3] (dose-response, calcium imaging) was 297.7 ± 2.1 µM. In addition, the “activation of MrgprA3 (increased [Ca2+]i)” value at MrgprA3 [4] is “strong response”. For the same compound, the EC50 on MrgprA3 [4] (dose-response, calcium imaging) worked out at 27.6 ± 2.03 µM. Besides, on rat MrgprC, the “response of rat MrgprC-electroporated Mrgpr-deficient neurons” value is reported as “did not”. Besides, the “patients refusing further treatment because of unbearable itch” value in data set [5] (African patients) is ~30%. Moreover, in data set [5] (black Africans), the “incidence of itch as side effect” value is “up to 70%”. For the same compound, the “neurons showing any response” value in the data set with DRG neurons (Mrgpr-clusterΔ-/- mice) is reported as “none of 11”. The “action potentials in CQ-sensitive neurons” value with DRG neurons (WT DRG) is reported as “displayed a train of APs”. Also, in the data set on mice (Mrgpr-clusterΔ-/- (KO) mice), the “occurrence of the first scratching behavior” value was determined as 280.5 ± 35.0 s. Moreover, the “total number of scratching bouts” value in the data set on mice (Mrgpr-clusterΔ-/- mice) was determined as 104±13. Moreover, in the data set with mice (WT mice), the “occurrence of the first scratching behavior” value stood at 57.8 ± 25.4 s, the “time at which scratching peaked” value is given as ≤ 15 min and the “total number of scratching bouts” value was determined as 278±21. For the same compound, the “first bout observed after injection” value in the data set with mice (WT mice, typical) was 1 to 2 min.
